The values below come from patent US20130029970A1 (priority 2009, published 2013).

Assay [1] addresses T1, recombinant human cannabinoid receptor CB2 (Homo sapiens, UniProt P34972).
T1 construct: (cDNA clone) CNR0200000
The experiment in a line: Cannabinoid receptor radioligand binding assay, [3H]-CP 55,940 displacement, hCB2. Put shortly: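 Receptor source: membrane pellet (40,000×g) from transfected cells, stored in HEPES pH 7.4/MgCl2/EDTA/sucrose buffer.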

The target in the next assay is T2, human CB1 receptors (Homo sapiens, UniProt P21554).
T2 construct: (cDNA clone) CNR01L000
T2 sequence (P21554 whole entry): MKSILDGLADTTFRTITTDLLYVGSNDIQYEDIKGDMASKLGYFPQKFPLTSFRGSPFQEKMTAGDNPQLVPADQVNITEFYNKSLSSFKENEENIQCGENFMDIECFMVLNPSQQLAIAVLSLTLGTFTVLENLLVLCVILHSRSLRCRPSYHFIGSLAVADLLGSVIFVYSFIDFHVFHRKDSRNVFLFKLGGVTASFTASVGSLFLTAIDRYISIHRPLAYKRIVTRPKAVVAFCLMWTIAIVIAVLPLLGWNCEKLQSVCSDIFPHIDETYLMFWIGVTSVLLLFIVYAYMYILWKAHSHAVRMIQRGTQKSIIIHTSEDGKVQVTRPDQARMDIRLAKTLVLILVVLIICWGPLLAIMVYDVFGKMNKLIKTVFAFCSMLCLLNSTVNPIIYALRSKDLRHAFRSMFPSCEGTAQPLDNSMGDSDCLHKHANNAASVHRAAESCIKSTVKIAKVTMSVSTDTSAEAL
The experiment in a line: cAMP assay in HEK-293 cells, hCB1 agonist. The note with it: inhibition of forskolin-stimulated cAMP, HEK-293 cells. Type of assay: cell-based. Put shortly:
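Agonist EC50 taken as concentration giving half inhibition of forskolin-driven cAMP, normalized to forskolin maximum, from sigmoidal curves. Whole HEK-293 cells stably expressing hCB1, in HEPES/BSA-containing HBSS, exposed 30 min at 37° C. to compound with forskolin (90 uM in 3× dilution); cAMP read after lysis.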
(Changes in cAMP serve as a functional read-out for many G protein-coupled receptors.)

T1 sequence (P34972 whole entry): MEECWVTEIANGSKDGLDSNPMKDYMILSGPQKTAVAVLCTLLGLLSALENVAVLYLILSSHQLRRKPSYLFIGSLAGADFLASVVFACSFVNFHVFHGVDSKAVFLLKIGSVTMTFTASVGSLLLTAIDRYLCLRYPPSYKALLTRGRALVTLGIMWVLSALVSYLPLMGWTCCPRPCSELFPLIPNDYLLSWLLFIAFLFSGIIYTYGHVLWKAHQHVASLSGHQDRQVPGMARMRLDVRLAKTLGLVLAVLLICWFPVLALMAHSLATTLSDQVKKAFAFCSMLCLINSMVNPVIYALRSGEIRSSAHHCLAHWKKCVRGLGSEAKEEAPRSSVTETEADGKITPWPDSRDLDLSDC

With `COc1ccc(C(O)(c2cc3cc(C)n(CCN4CCOCC4)c3s2)C(F)(F)F)cc1` (stereo not drawn) [Compound 138, 2,2,2-trifluoro-1-(4-methoxyphenyl)-1-(5-methyl-6-(2-morpholinoethyl)-6H-thieno[2,3-b]pyrrol-2-yl)ethanol], the IC50 (usually the point on the concentration scale where inhibition reaches its midpoint) in assay [1] was in the range of 100 to 1000 nM. On human CB1 receptors, the “hCB1 EC50 (cAMP ag, nM)” value is listed as “NS (NS means “Not Significant,” which means less than 30% agonist activity when compared to the positive control.)”.

As for `Cc1ccc(C(=N)c2cc3cc(C)n(CCN4CCOCC4)c3s2)cc1` [Compound 121, (5-methyl-6-(2-morpholinoethyl)-6H-thieno[2,3-b]pyrrol-2-yl)(p-tolyl)methanimine], in assay [1], the IC50 is 100 to 1000 nM. Further, the “hCB1 EC50 (cAMP ag, nM)” value on human CB1 receptors is given as “NS (NS means “Not Significant,” which means less than 30% agonist activity when compared to the positive control.)”.

Regarding `COc1ccc(C(=O)c2cc3cc(C)n(CCN4CCOCC4)c3s2)cn1` [Compound 58, (6-Methoxypyridin-3-yl)(5-methyl-6-(2-morpholinoethyl)-6H-thieno[2,3-b]pyrrol-2-yl)methanone], in assay [1], the IC50 lay in the range of 100 to 1000 nM. In addition, the “hCB1 EC50 (cAMP ag, nM)” value at human CB1 receptors is recorded as “NS (NS means “Not Significant,” which means less than 30% agonist activity when compared to the positive control.)”.

Consider `Cc1cc2cc(C(=O)c3ccc(C(F)(F)F)cc3)sc2n1CCN1CCOCC1` [Compound 60, (5-Methyl-6-(2-morpholinoethyl)-6H-thieno[2,3-b]pyrrol-2-yl)(4-(trifluoromethyl)phenyl)methanone], for which the IC50 in assay [1] lay within 1000 to 10000 nM. For the same compound, the “hCB1 EC50 (cAMP ag, nM)” value at human CB1 receptors was “NS (NS means “Not Significant,” which means less than 30% agonist activity when compared to the positive control.)”.

Take `COc1ccc(C(=O)c2cc3cc(C)n(Cc4ccccc4)c3s2)cc1` [Compound 84, (6-Benzyl-5-methyl-6H-thieno[2,3-b]pyrrol-2-yl)(4-methoxyphenyl)methanone]: in assay [1], the half-inhibitory concentration (IC50) was in the range of 100 to 1000 nM. Also, at human CB1 receptors, the “hCB1 EC50 (cAMP ag, nM)” value was “NS (NS means “Not Significant,” which means less than 30% agonist activity when compared to the positive control.)”.

As to `COc1ccc(C(=O)c2cc3cc(C)n(CCCCl)c3s2)c(Cl)c1` [Compound 85, (2-Chloro-4-methoxyphenyl)(6-(3-chloropropyl)-5-methyl-6H-thieno[2,3-b]pyrrol-2-yl)methanone], the IC50 in assay [1] is less than 100 nM. Moreover, the EC50 (commonly the concentration that produces a half-maximal response) on human CB1 receptors (read-out: hCB1 EC50 (cAMP ag)) was 1000 to 10000 nM.

Consider `Cc1cc2cc(C(=O)c3cccc(Cl)c3)sc2n1CCN1CCOCC1` [Compound 4, (3-Chlorophenyl)(5-methyl-6-(2-morpholinoethyl)-6H-thieno[2,3-b]pyrrol-2-yl)methanone], for which the half-inhibitory concentration (IC50) in assay [1] fell in the range of 100 to 1000 nM. In addition, on human CB1 receptors, the “hCB1 EC50 (cAMP ag, nM)” value is recorded as “NS (NS means “Not Significant,” which means less than 30% agonist activity when compared to the positive control.)”.

In the case of `Cc1cc2cc(C(=O)c3ccc(F)cc3F)sc2n1CCN1CCOCC1` [Compound 135, (2,4-difluorophenyl)(5-methyl-6-(2-morpholinoethyl)-6H-thieno[2,3-b]pyrrol-2-yl)methanone], the IC50 in assay [1] was 100 to 1000 nM. In addition, on human CB1 receptors, the “hCB1 EC50 (cAMP ag, nM)” value was “NS (NS means “Not Significant,” which means less than 30% agonist activity when compared to the positive control.)”.

`COc1ccc(C(=O)c2cc3cc(C)n(CCN4CCOCC4)c3s2)c(C)n1` [Compound 136, (6-methoxy-2-methylpyridin-3-yl)(5-methyl-6-(2-morpholinoethyl)-6H-thieno[2,3-b]pyrrol-2-yl)methanone]: the IC50 in assay [1] was less than 100 nM. In addition, on human CB1 receptors, the “hCB1 EC50 (cAMP ag, nM)” value is “NS (NS means “Not Significant,” which means less than 30% agonist activity when compared to the positive control.)”.

As for `CCS(=O)(=O)n1c(C)cc2cc(C(=O)c3ccccc3Cl)sc21` [Compound 42, (2-Chlorophenyl)(6-(ethylsulfonyl)-5-methyl-6H-thieno[2,3-b]pyrrol-2-yl)methanone], the IC50 in assay [1] was 100 to 1000 nM. Moreover, the “hCB1 EC50 (cAMP ag, nM)” value at human CB1 receptors is “NS (NS means “Not Significant,” which means less than 30% agonist activity when compared to the positive control.)”.

For `COc1ccc(C(=O)c2cc3cc(C)n(CCN4CCC(OC)C4)c3s2)cn1` (stereo not drawn) [Compound 147, (6-methoxypyridin-3-yl)(6-(2-(3-methoxypyrrolidin-1-yl)ethyl)-5-methyl-6H-thieno[2,3-b]pyrrol-2-yl)methanone], the concentration for half-maximal inhibition (IC50) in assay [1] was in the range of 1000 to 10000 nM. Besides, at human CB1 receptors, the “hCB1 EC50 (cAMP ag, nM)” value was “NS (NS means “Not Significant,” which means less than 30% agonist activity when compared to the positive control.)”.

On to `COc1ccc(C(=O)c2cc3cc(C)n(S(=O)(=O)N(C)C)c3s2)cc1` [Compound 51, 2-(4-Methoxybenzoyl)-N,N,5-trimethyl-6H-thieno[2,3-b]pyrrole-6-sulfonamide], for which the IC50 in assay [1] was less than 100 nM. In addition, the “hCB1 EC50 (cAMP ag, nM)” value at human CB1 receptors is “NS (NS means “Not Significant,” which means less than 30% agonist activity when compared to the positive control.)”.

As for `Cc1cc2cc(C(=O)c3ccc(F)cc3)sc2n1CCN1CCOCC1` [Compound 54, (4-Fluorophenyl)(5-methyl-6-(2-morpholinoethyl)-6H-thieno[2,3-b]pyrrol-2-yl)methanone], the 50% inhibitory concentration (IC50) in assay [1] lay in the range of 100 to 1000 nM. In addition, the “hCB1 EC50 (cAMP ag, nM)” value at human CB1 receptors is “NS (NS means “Not Significant,” which means less than 30% agonist activity when compared to the positive control.)”.

As for `Cc1cc2cc(C(=O)c3cccc(Cl)c3Cl)sc2n1CC1CCOCC1` [Compound 31, (2,3-Dichlorophenyl)(5-methyl-6-((tetrahydro-2H-pyran-4-yl)methyl)-6H-thieno[2,3-b]pyrrol-2-yl)methanone], the half-inhibitory concentration (IC50) in assay [1] is less than 100 nM. At human CB1 receptors, the “hCB1 EC50 (cAMP ag, nM)” value was “NS (NS means “Not Significant,” which means less than 30% agonist activity when compared to the positive control.)”.

On to `COc1ccc(C(=O)c2cc3cc(C)n(CCCNS(C)(=O)=O)c3s2)cc1` [Compound 44, N-(3-(2-(4-methoxybenzoyl)-5-methyl-6H-thieno[2,3-b]pyrrol-6-yl)propyl)methanesulfonamide], for which the IC50 in assay [1] was less than 100 nM. Further, the “hCB1 EC50 (cAMP ag, nM)” value at human CB1 receptors is “NS (NS means “Not Significant,” which means less than 30% agonist activity when compared to the positive control.)”.

On to `COc1ccc(C(=O)c2cc3cc(C)n(CCN4CCOCC4)c3s2)cc1F` [Compound 128, (3-fluoro-4-methoxyphenyl)(5-methyl-6-(2-morpholinoethyl)-6H-thieno[2,3-b]pyrrol-2-yl)methanone], for which the IC50 in assay [1] is 100 to 1000 nM. Moreover, the “hCB1 EC50 (cAMP ag, nM)” value at human CB1 receptors is “NS (NS means “Not Significant,” which means less than 30% agonist activity when compared to the positive control.)”.

For the compound `CCn1c(C)cc2cc(C(=O)c3cccc(Cl)c3Cl)sc21` [Compound 19, (2,3-Dichlorophenyl)(6-ethyl-5-methyl-6H-thieno[2,3-b]pyrrol-2-yl)methanone], in assay [1], the half-inhibitory concentration (IC50) is 100 to 1000 nM. Besides, the “hCB1 EC50 (cAMP ag, nM)” value on human CB1 receptors is given as “NS (NS means “Not Significant,” which means less than 30% agonist activity when compared to the positive control.)”.

For `CCS(=O)(=O)n1c(C)cc2cc(C(=O)c3ccc(OC)cc3)sc21` [Compound 56, (6-(Ethylsulfonyl)-5-methyl-6H-thieno[2,3-b]pyrrol-2-yl)(4-methoxyphenyl)methanone], the half-inhibitory concentration (IC50) in assay [1] is 100 to 1000 nM. In addition, the “hCB1 EC50 (cAMP ag, nM)” value on human CB1 receptors is listed as “NS (NS means “Not Significant,” which means less than 30% agonist activity when compared to the positive control.)”.
